US6503885B1, “Carboxymethylgalactose derivatives” (Otsuka Pharmaceutical Co., Ltd., priority 1998, dated 2003)

What was measured:
Type in all cases: cell-based
[1] = test system: P-selectin-IgG; test: Binding inhibitory activity test: HL-60 cell binding to immobilized P-selectin-IgG; conditions: 0.3 mM test compound; HL-60 cells; 20 ng P-selectin-IgG per well; average of 5 wells ± SE
[2] = test system: L-selectin-IgG; test: Binding inhibitory activity test: HL-60 cell binding to immobilized L-selectin-IgG; conditions: 0.3 mM test compound; HL-60 cells; 100 ng L-selectin-IgG; average of 5 wells ± SE
Method: [The source words this procedure for another target and says it was used here with some conditions changed.] (§1) The binding inhibitory activity of the test compound was measured in terms of the inhibition of binding of premyelocytic leukemia HL-60 cells to immobilized recombinant selectin-IgG fusion proteins by addition of the test compound to the binding reaction system, in accordance with the method described in the above-identified reference.
(§2) Stated more specifically, 20 ng of purified P-selectin-IgG was added to each well of a microtiter plate (96 wells, Nunc Maxisorp) and immobilized. Phosphate buffered saline (PBS) was added to each well to make a total volume of 100 μl and the plate was allowed to stand at 4° C. overnight. The excess solution was removed by aspiration, and non-specific binding sites were blocked with PBS containing 1% bovine serum albumin (BSA) at room temperature for 1 hour. After removal of the blocking solution by aspiration, 0.3 mM of the test compound as dissolved in 100 μl of a binding buffer (RPMI1640), and 10^6 cells/ml of HL-60 cells as suspended in 100 μl of the binding buffer were added to each well. The plate was centrifuged at 500 rotations per minute for 2 minutes at room temperature, and each well was filled with the binding buffer. The plate was carefully sealed with an adhesive tape so as to avoid trapping any air bubbles. The plate was turned upside down and centrifuged at 500 rotations per minute for 10 minutes to remove unbound HL-60 cells. The adhesive tape was peeled off and the buffer was removed by aspiration. The number of cells bound/well was determined using a cell counting kit (WST-1 assay kit, product of Dojin Kagaku K.K.) (M. Ishiyama. M. Shiga, M. Mizoguchi and P. He, Chem. Pharm. Bull., 41, 1118-1122 (1994)).
(§3) The binding inhibition (%) was calculated from the number (M) of bound cells achieved in the test using the test compound and the number (N) of bound cells achieved in the comparative test not using the test compound, according to the following equation:
(§4) Binding inhibition (%)=100×(N−M)/N […]
(§5) The data were expressed as an average value of 5 wells±standard error (SE).

[3] = test system: E-selectin-IgG; test: Binding inhibitory activity test: HL-60 cell binding to immobilized E-selectin-IgG; conditions: 0.3 mM test compound; HL-60 cells; 40 ng E-selectin-IgG; average of 5 wells ± SE
Method: [The source words this procedure for another target and says it was used here with some conditions changed.] as §1, §2, §3, §4, §5

| Compound | Binding inhibition (%) P-selectin [1] [%] | Binding inhibition (%) L-selectin [2] [%] | Binding inhibition (%) E-selectin [3] [%] |
| --- | --- | --- | --- |
| CCCCCCCCCCCCCCC(CCCCCCCCCCCCCC)CO[C@@H]1O[C@H](CO)[C@H](O)[C@H](OS(=O)(=O)O)[C@H]1O [Comparative compound, 2-(tetradecyl)hexadecyl 3-O-sulfo-β-D-galactopyranoside] | 6 ± 3 | 13 ± 3 | 0 ± 5 |
| CCCCCCCCCCCCCCC(CCCCCCCCCCCCCC)CO[C@@H]1O[C@H](CO)[C@H](O)[C@H](CC(=O)O)[C@H]1O [Compound of the invention, 2-(tetradecyl)hexadecyl 3-deoxy-3-C-(carboxymethyl)-β-D-glactopyranoside] | 79 ± 3 | 92 ± 3 | 12 ± 8 |
| sialyl Lewis-x [SLe^x] | 3 ± 6 | 0 ± 5 | 0 ± 4 |
